Laboratory results published in patent US20240240256A1, “MOLECULAR ANALYSIS OF EXTRACELLULAR VESICLES (EVs) FOR THE PREDICTION AND MONITORING OF DRUG RESISTANCE IN CANCER” (The General Hospital Corporation, priority 2023, published 2024).

Legend:
BT474 = experiment: MTT growth inhibition assay, paclitaxel drug sensitivity; format: cell-based; conditions: Homo sapiens, BT-474, BT474 breast cancer cells, 72 h treatment, read-out: paclitaxel inhibitor concentration 50 (IC50)
Experimental: (§1) The human breast cancer cell lines, including HCC1954, BT474, MCF7, MDA-MB-231, HCC1937 cells, and normal breast cell, Hs371T, were purchased from American Type Culture Collection (ATCC) and cultured at 37° C. in 5% CO2. HCC1954, BT474, and HCC1937 cells were grown in RPMI-1640 (Hyclone), and MCF7, MDA-MB-231, and Hs371T cells were cultured in DMEM (Cyclone). All complete media contained 10% fetal bovine serum (FBS, ThermoFisher Scientific), 100 U/mL penicillin, and 100 μg/mL streptomycin (Millipore Sigma).
(§2) Drug sensitivity was determined by the 3-(4, 5-dimethylthiazol-2-yl)-2, 5-diphenyl tetrazolium bromide (MTT) colorimetric assay. First, cells were counted with a hemocytometer, seeded in a 96-well plate, and cultured for 24 h. After that, cells were treated with paclitaxel for 72 h: paclitaxel (1.00E-06-10 µM). Subsequently, MTT dye (Sigma-Aldrich; Merck KGaA) at a final concentration of 0.5 mg/ml was added for 3 hours. This was followed by replacing the medium and dissolving the formazan crystals with DMSO. The optical density (OD; absorbance at 540 nm) was measured using a plate reader (Tecan). Data (mean±SD of at least three independent experiments performed in triplets) are presented as the relative proliferation as a function of time after seeding.
(§3) MTT assay was performed for each cell line to determine the paclitaxel inhibitor concentration 50 (IC50) in the six breast cancer cell lines included.

HCC1937 = experiment: as above; format: cell-based; conditions: Homo sapiens, HCC1937 breast cancer cells, 72 h treatment, read-out: paclitaxel inhibitor concentration 50 (IC50)
Experimental: as §1, §2, §3

HCC1954 = experiment: as above; format: cell-based; conditions: Homo sapiens, HCC1954 breast cancer cells, 72 h treatment, read-out: paclitaxel inhibitor concentration 50 (IC50)
Experimental: as §1, §2, §3

MD-MB-231 = experiment: as above; format: cell-based; conditions: Homo sapiens, MD-MB-231 breast cancer cells, 72 h treatment, read-out: paclitaxel inhibitor concentration 50 (IC50)
Experimental: as §1, §2, §3

HCC1954 REPX = experiment: MTT growth inhibition assay, paclitaxel-resistant subtype; format: cell-based, human
Experimental: To develop the paclitaxel resistance subtype, cells were continually exposed to stepwise increases in the concentration of paclitaxel over 16 to 18 weeks. Briefly, HCC1954 cells were seeded at a density of ˜5×10^5/mL in a T75 cell culture flask with 10 mL complete growth medium. After 4-6 hours of incubation, relatively low concentrations of paclitaxel (ranging from 1 to 150 nM) were added into the medium. Cells were left in paclitaxel for three days or until a stable cell re-population formed. Regular medium replenishment was performed throughout this period. The paclitaxel concentration was then increased by 0.5 to 2-fold. This stepwise dose escalation continued for 16 to 18 weeks until the paclitaxel concentration reached at least ten times the starting concentration. […]
Drug sensitivity was determined by the 3-(4, 5-dimethylthiazol-2-yl)-2, 5-diphenyl tetrazolium bromide (MTT) colorimetric assay. First, cells were counted with a hemocytometer, seeded in a 96-well plate, and cultured for 24 h. […] The optical density (OD; absorbance at 540 nm) was measured using a plate reader (Tecan). […]
To generate a resistance cell model in vitro (HCC1954 REPX), the HCC1954 cell line was treated with increasing concentrations of paclitaxel, and cell viability was re-evaluated after 18 weeks of treatment.

IC50 (BT474): 0.1 µM
IC50 (HCC1937): 9.9 µM
IC50 (HCC1954): 0.014 µM
IC50 (HCC1954 REPX; Homo sapiens, HCC1954 REPX paclitaxel-resistant subtype, after 18 weeks of paclitaxel treatment, MTT): 1.8 µM
Compound: CC(=O)O[C@H]1C(=O)[C@@]2(C)[C@H]([C@H](OC(=O)c3ccccc3)[C@]3(O)C[C@H](OC(=O)[C@H](O)[C@@H](NC(=O)c4ccccc4)c4ccccc4)C(C)=C1C3(C)C)[C@]1(OC(C)=O)CO[C@@H]1C[C@@H]2O [paclitaxel, Paclitaxel]
IC50 (MD-MB-231): 0.6 µM
increase in paclitaxel-resistance (HCC1954 REPX; IC50 in HCC1954 REPX compared to parental HCC1954): 128.57 fold
